Laboratory results from paper PMC10080691, “Enzyme-Responsive Double-Locked Photodynamic Molecular Beacon for Targeted Photodynamic Anticancer Therapy” (Journal of the American Chemical Society, 2023).

How the values were obtained:
MMP-2 and cathepsin B = experiment: Dual-enzyme (sequential MMP-2 then cathepsin B) activation: fluorescence, singlet oxygen, LC-MS; assay type: biochemical; conditions: for singlet oxygen generation (DPBF decay at 417 nm) after enzyme treatment: DPBF 30 μM, sequential MMP-2 and cathepsin B, irradiation λ > 610 nm, 300 s
Procedure: To study the dual-enzyme-activated effect, PMB 1 was first treated with MMP-2 (2 μg mL^–1) in PBS for 6 h, followed by the addition of NaOAc, EDTA, and GSH and adjustment of the pH to 5.0 to create a working environment for cathepsin B. This enzyme (1 unit mL^–1) was then added, and the mixture was stirred for a further 19 h. […] The intensity at 25 h was almost the same as that at 24 h, which could be regarded as full activation, arising from the complete separation of the two components. In contrast, the absorption and fluorescence spectra of 14 remained unchanged upon this treatment (Figure S10).
The fluorescence recovery was then determined for 1 under the aforementioned conditions, assuming that the fluorescence intensity of 8 at the same concentration in the same medium was the maximum fluorescence intensity that could be recovered. The results are depicted in Figure 3c. […] In addition, we also determined the corresponding on/off ratios by dividing the fluorescence intensity at 25 h by the initial fluorescence intensity under each of these conditions. […] For 14, the ratios were below 1.5 under all the conditions, showing that the effect of the two enzymes was negligible for this conjugate.
Apart from the activation in fluorescence emission, the activation of 1 in singlet oxygen generation was also studied. PMB 1 (1 μM) was treated with MMP-2 and/or cathepsin B as described above and then mixed with DPBF (30 μM). The absorption spectra of these mixtures were monitored during light irradiation (λ > 610 nm) over a period of 300 s. […] The decrease in absorbance became more substantial for 1 after the treatment with both enzymes. As expected, the changes were negligible for 14 under all conditions (Figure S12).
To study the dual-enzyme-activated effect, PMB 1 was treated with MMP-2 (for 6 h) and cathepsin B (for 19 h) sequentially as mentioned above. […]
where W and Iabs are the DPBF photobleaching rate and the rate of light absorption, […]
MMP-2 and Cathepsin B-Responsive Spectroscopic Studies
Compound 1 or 14 was dissolved in DMF to form a 1 mM stock solution, which was then diluted to 1 μM with PBS at pH 7.4 or buffer solution (pH 5.0, 25 mM NaOAc, 1 mM EDTA, 500 μM GSH), both in the presence of 0.1% Tween 80 (v/v) . For the MMP-2-responsive studies, the solutions in PBS were treated with MMP-2 (2 μg mL-1). For the cathepsin B-responsive studies, the solutions in buffer solution were treated with cathepsin B (1 unit mL-1). For the dual-enzyme-responsive studies, the solutions in PBS were first treated with MMP-2 (2 μg mL-1) for 6 h, followed by the treatment with cathepsin B (1 unit mL-1) after the addition of NaOAc, EDTA, and GSH and adjustment of the pH, turning into the conditions of the buffer solution.
All of the solutions were stirred continuously at 37 °C. The ir electronic absorption and fluorescence spectra were monitored over a period of 25 h.
MMP-2- and Cathepsin B-Responsive Singlet Oxygen Generation Studies […]
halogen lamp after passing through a water tank for cooling and a color glass filter (Newport) cut-on at λ = 610 nm. The decay of DPBF at λ = 417 nm was monitored with a spectrophotometer during the irradiation period. […]
According to the above procedure, 1 and 14 were treated with MMP-2 and cathepsin B. After a period of 25 h, MeOH was added into the solutions for precipitating the enzymes. After filtration, the filtrate was analyzed by LC-MS using the aforementioned conditions. […]

skin of nude mice = experiment: In vivo photodynamic effect on skin; conditions: intravenous 20 nmol
Procedure: The mice were first intravenously injected with either 1 or 6 (20 nmol) in 200 μL of distilled water containing 3% DMSO and 0.5% Tween 80 (v/v). The whole-body fluorescence images of the mice were monitored using an infrared imaging system over a period of 24 h.
At 6 h post-injection of 1 or 6, the mice were irradiated with the aforementioned laser source (680 nm, 0.3 W cm^–2) on a region of the skin (marked in Figure 8d) for 10 min, which were the conditions used for in vivo PDT as described above. The appearance of the irradiated region was then examined after 24 h. […] The skin tissues of these mice were then harvested and examined using the TUNEL assay.
Further evidence was obtained by the H&E staining of these skin tissues.
Female Balb/c nude mice (20–25 g) were injected with a solution of 1 or 6 (20 nmol) in 200
μL of distilled water containing 3% DMSO and 0.5% Tween 80 (v/v) through the tail vein.
vivo fluorescence imaging was performed before and after the injection at different time points
up to 24 h with an Odyssey infrared imaging system (excitation wavelength = 680 nm, emission
wavelength ≥ 700 nm). The images were digitized and analyzed using an Odyssey imaging
Three mice were used for each comp ound. To study the
photodynamic effect of these two compounds on the skin of the mice, a region of the skin was
illuminated with a diode laser (Biolitec Ceralas) at 680 nm operated at 0.24 W at 6 h post -
injection of these compounds. Illumination on a circu lar spot with a diameter of 1.0 cm (fluence
rate = 0.3 W cm-2) for 10 min led to a total fluence of 180 J cm–2. After 24 h, the mice were
sacrificed, and then the skin tissues were harvested. They were fixed with 4%
paraformaldehyde, dehydrated in an alcohol series, mixed with solutions of xylene and paraffin,
and then embedded in paraffin. The tissue sections were prepared by a Leica RM2235
microtome. After the H&E staining, the tissues were examined with a Nikon Eclipse Ni-E
upright fluorescence microscope. For the TUNEL staining assay, the skin tissues were dewaxed
and rehydrated in an alcohol series and then incubated with a Proteinase K solution (20 μg mL-
1) at room temperature for 30 min. After being rinsed with PBS three times, the tissue slides
were stained with 50 μL of Nucleotide Mix (a mixture of terminal deoxynucleotidyl transferase
and cyanine 3-labeled deoxyuridine triphosphate) of the one -step TUNEL assay kit (Beyotime,
Shanghai, China), and then the nuclei were stained with Hochest 33342 (10 μM) for 1 h at
room temperature. After being rinsed with PBS for three times, the tissue slides were examined
with a Zeiss LSM 880 NLO laser scanning microscope equipped with two solid-state 405 and
561 nm lasers. Hoechst 33342 was excited at 405 nm and its fluorescence was monitored at
410−500 nm, while the TUNEL staining cyanine 3 dye was excited at 561 nm and its
fluorescence was monitored at 570−620 nm.

[1] = test system: A549 tumor-bearing nude mice; experiment: In vivo fluorescence activation in tumor; design: species or system Balb/c nude mice; conditions: 6 h post-injection; intratumoral, 20 nmol in 20 μL water with 7.5% DMSO and 0.5% Tween 80; excitation 680 nm, emission ≥700 nm; n = 4
Procedure: The in vivo activation of 1 in terms of fluorescence emission was further investigated using A549 tumor-bearing nude mice as the animal model and the non-cleavable analogue 14 as the negative control. […] The fluorescence intensity per unit area of the tumor was also determined at different time points for both conjugates (Figure 7b). […] At 6 h post-injection, the intensity of 1 was 4.3-fold higher than that of 14, showing that the former could be activated through enzymatic cleavage of the two peptide segments by the intrinsic MMP-2 and cathepsin B in the tumor, while the latter remained largely quenched due to its non-cleavable nature. […]
taken by a microplate reader (Tecan Spark 10M) at ambient temperature. The average […]
of the other wells. The cell viability was then determined by the equation: […]
where Ai is the absorbance of the ith datum (i = 1, 2, …, n), Acontrol is the average absorbance of the control wells in which the compound was absent, and n (= 4) is the number of data points.
Female Balb/c nude mice (20–25 g) were obtained from the Laboratory Animal Services Centre at The Chinese University of Hong Kong. […] In vivo fluorescence imaging was performed before and after […]
A549 tumor-bearing nude mice were prepared as described above. The length and width of the tumor were measured using a micrometer digital caliper (SCITOP Systems). […]

[2] = with laser irradiation (680 nm, 0.3 W cm-2, 10 min), 24 h after

SMILES	singlet oxygen generation (DPBF decay at 417 nm) after enzyme treatment (MMP-2 and cathepsin B; 1 μM)	appearance of irradiated skin region after 24 h (skin of nude mice; laser 680 nm, 0.3 W cm-2, 10 min at 6 h post-injection)	H&E staining of skin tissue (skin of nude mice; [2])	TUNEL assay of skin tissue (skin of nude mice; [2])	H&E staining of skin tissue (skin of nude mice; without laser irradiation)	TUNEL assay of skin tissue (fluorescence intensity) (skin of nude mice; without laser irradiation)	tumoral fluorescence intensity relative to that of 14 [1] [fold]	on/off ratio (fluorescence intensity at 25 h / initial intensity) (MMP-2 and cathepsin B; 1 μM, MMP-2 6 h then cathepsin B 19 h, 37 °C)	fluorescence recovery (MMP-2 and cathepsin B; 1 μM, MMP-2 (2 μg mL-1) in PBS 6 h, then cathepsin B (1 unit mL-1) pH 5.0 buffer 19 h, 37 °C, relative to 8) [%]	LC-MS signal of intact compound after enzyme treatment (MMP-2 and cathepsin B; MMP-2 6 h then cathepsin B 19 h, fragments 17 and 18 formed)
CCN(CC)c1ccc2nc3ccc(/N=N/c4ccc(N(C)CCCNC(=O)OC[C@@H]5[C@@H]6CCc7nnn(CC(=O)NCCCC[C@@H]8NC(=O)CNC(=O)[C@H](CCCCN)NC(=O)CNC(=O)CNC(=O)CNC(=O)CNC(=O)CNC(=O)[C@H](CCCCN)NC(=O)[C@@H](N)CSCc9cc(COc%10ccc(C%11=C%12C(C)=C(I)C(/C=C/c%13ccc(OCCOCCOCCOC)cc%13)=[N+]%12[B-](F)(F)n%12c(/C=C/c%13ccc(OCCOCCOCCOC)cc%13)c(I)c(C)c%12%11)cc%10)cc(c9)CSC[C@@H](C(N)=O)NC(=O)[C@H](CCCCN)NC(=O)[C@H](CCCCN)NC(=O)CNC(=O)CNC(=O)CNC(=O)CNC(=O)[C@H](CCCCN)NC(=O)CNC8=O)c7CC[C@@H]65)cc4)cc3[n+](-c3ccccc3)c2c1 [compound 14]	negligible									
CCN(CC)c1ccc2nc3ccc(/N=N/c4ccc(N(C)CCCNC(=O)OC[C@@H]5[C@@H]6CCc7nnn(CC(=O)NCCCC[C@@H]8NC(=O)CNC(=O)[C@H](CCCCN)NC(=O)[C@H](CCCNC(=N)N)NC(=O)[C@H](C(C)C)NC(=O)CNC(=O)[C@H](CC(C)C)NC(=O)[C@@H]9CCCN9C(=O)[C@H](CCCCN)NC(=O)[C@@H](N)CSCc9cc(COc%10ccc(C%11=C%12C(C)=C(I)C(/C=C/c%13ccc(OCCOCCOCCOC)cc%13)=[N+]%12[B-](F)(F)n%12c(/C=C/c%13ccc(OCCOCCOCCOC)cc%13)c(I)c(C)c%12%11)cc%10)cc(c9)CSC[C@@H](C(N)=O)NC(=O)[C@H](CCCCN)NC(=O)[C@H](CCCCN)NC(=O)CNC(=O)[C@H](CC(C)C)NC(=O)[C@H](Cc9ccccc9)NC(=O)CNC(=O)[C@H](CCCCN)NC(=O)CNC8=O)c7CC[C@@H]65)cc4)cc3[n+](-c3ccccc3)c2c1 [compound 1]	turned on remarkably	no noticeable change	virtually intact	negligible	virtually intact	negligible	4.3	16	85	disappearance of the signal of 1
